Source: BindingDB's records for doi:10.1074/jbc.M114.553248 (National Taiwan University, 2014)

Legend:
[1] = biological target: Isoform A1-A of Heterogeneous nuclear ribonucleoprotein A1 (A1-A) (Homo sapiens, UniProt P09651); assay: Surface Plasmon Resonance (SPR) Assay; settings: pH 4
Source text: (§1) Recombinant full-length hnRNPA1 (aa 1-320) and truncated versions of hnRNPA1, including the N-terminal RNA binding domain (aa 1-196), the middle region (aa 182-268), and the C-terminal region (aa 268-320), were individually covalently coupled to a dextran matrix (CM5 chip) using a Biacore T200 system (GE Healthcare), following the manufacturer's protocols. Immobilized proteins were activated with N-hydroxysuccinimide and 1-ethyl-3-(3-dimethylaminopropyl) carbodiimide to form a […] between carboxyl moieties on the dextran and […] on the protein. hnRNPA1 variants were dissolved in 10 mM acetate buffer (full-length, pH 4; N-terminal RNA binding domain and the C-terminal region, pH 4.5; middle region, pH 5) to a concentration of 20 μg/ml and flowed over the activated surface for 5 min with PBS. Unreacted groups were blocked with ethanolamine. PBS containing 0.05% (v/v) P20 (surfactant) and 5% DMSO was used for priming and conditioning the surface of the chips. Quercetin was serially diluted (from 200 to 3 μM) in PBS buffer and maintained in DMSO (5% (v/v)) (final concentrations from 10 to 0.15 μM). The baseline response was determined for 120 s (30 μl/min) before perfusing the immobilized proteins with the compounds to allow association to occur. Dissociation was then monitored over a period of an additional 120 s. […]

[2] = biological target: Isoform A1-A of Heterogeneous nuclear ribonucleoprotein A1 (A1-A) 68-320] (Homo sapiens, UniProt P09651); assay: Surface Plasmon Resonance (SPR) Assay; settings: pH 4
Sequence of Isoform A1-A of Heterogeneous nuclear ribonucleoprotein A1 (A1-A) 68-320] (P09651 320-372): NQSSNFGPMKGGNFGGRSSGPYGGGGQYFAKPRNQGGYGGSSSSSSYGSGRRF
Source text: as §1

Sequence of Isoform A1-A of Heterogeneous nuclear ribonucleoprotein A1 (A1-A) (P09651 as listed by the source): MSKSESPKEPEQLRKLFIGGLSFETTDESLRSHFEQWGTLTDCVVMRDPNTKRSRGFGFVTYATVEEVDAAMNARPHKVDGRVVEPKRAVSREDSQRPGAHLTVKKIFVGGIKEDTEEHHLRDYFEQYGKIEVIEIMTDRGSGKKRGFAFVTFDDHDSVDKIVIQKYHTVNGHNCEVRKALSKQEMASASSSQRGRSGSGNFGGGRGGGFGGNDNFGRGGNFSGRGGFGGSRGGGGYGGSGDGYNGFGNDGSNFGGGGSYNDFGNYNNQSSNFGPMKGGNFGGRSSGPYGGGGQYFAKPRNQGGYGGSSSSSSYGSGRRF

O=c1c(O)c(-c2ccc(O)c(O)c2)oc2cc(O)cc(O)c12 [2-(3,4-dihydroxyphenyl)-3,5,7-trihydroxy-chromone;hydrate]
Kd [1]: 8.9 µM | Kd [2]: 1.7 µM
